Results on three molecules are retold here after patent US5460806A, “Bis(2-mercaptoethyl) sulfone” (President and Fellows of Harvard College, priority 1993, dated 1995).

Structures are written as SMILES. “Also recorded” adds a separate entry of the source.

The nature of one data set: pKa of the dithiol. Type of data set: physicochemical. From the text:
(§1) The following is taken from Lamoureux and Whitesides, 58 J. Org. Chem. 633, 1993, hereby incorporated by reference herein. The general methodology and equations used for analysis are presented there, and are not repeated here.

Data set [1] in a line: thiol/disulfide equilibrium (reduction strength) relative to oxidized mercaptoethanol.
Source text: In addition to a fast rate of reduction, a useful dithiol should be strongly reducing in order to reduce disulfides quantitatively and to maintain thiols in the reduced state without the inconvenience of mixed disulfides. […] We have used this equilibrium to evaluate several dithiols in terms of their reduction strength.
as §1

Data set [2] can be described thus: stability of aqueous solution of the dithiol. Type of data set: physicochemical. The note with it: over several days, protected from atmospheric oxygen.
For data set [3] the following is noted: cited from earlier work; for reducing strength: reduction of a disulfide bond.

As to `O=S(=O)(CCS)CCS` [bis(2-mercaptoethyl) sulfone, Bis(2-mercaptoethyl) sulfone], the pKa in the data set “pKa of the dithiol” is around 7.9. In data set [1], the “equilibrium constant relative to oxidized mercaptoethanol” value was “about 63”. For the same molecule, the “signs of decomposition of aqueous solution” value in data set [2] is given as “no signs of decomposition”.

Turning to `OCCS` [Mercaptoethanol], in data set [3] (background statement, pH not given), the “rate of reduction (in words)” value is “slow”. Further, the reducing strength result in data set [3] (background statement) is reported as “weak”.

For the molecule `O[C@H](CS)[C@H](O)CS` (racemic) [DTT, Dithiothreitol], in data set [3] (pH=7, background statement), the “rate of reduction (in words), pH=7” value is recorded as “kinetically slow”. Moreover, in data set [3] (background statement), the reducing strength result is “strong reductant; also recorded: one of the most strongly reducing dithiols”.

What is called pKa is the pH at which an ionisable group is half protonated. Read a low pKa as a group that gives up its proton readily.
